Laboratory results: ChEMBL document CHEMBL1201862, “PubChem BioAssay data set” (2004)
Active and inactive are the calls of the source.

Assays:
[1] = target: T1, Tyrosine-protein phosphatase non-receptor type 7 (Homo sapiens, UniProt P35236); test: HePTP tyrosine phosphatase activity blockers – biochemical, absorbance, leukemia target, primary screen (AID 521); type: functional
T1 sequence (P35236 whole entry): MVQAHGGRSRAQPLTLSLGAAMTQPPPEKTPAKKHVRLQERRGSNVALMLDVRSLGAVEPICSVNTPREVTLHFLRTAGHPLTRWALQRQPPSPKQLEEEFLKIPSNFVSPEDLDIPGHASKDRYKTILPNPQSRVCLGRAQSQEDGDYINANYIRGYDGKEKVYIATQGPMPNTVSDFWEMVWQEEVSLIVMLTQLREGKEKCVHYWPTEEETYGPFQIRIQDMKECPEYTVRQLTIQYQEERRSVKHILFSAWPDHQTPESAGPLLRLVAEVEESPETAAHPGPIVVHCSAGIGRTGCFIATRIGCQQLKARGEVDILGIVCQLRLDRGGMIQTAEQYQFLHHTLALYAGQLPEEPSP

[2] = Luminescence Cell-Based Dose Response to Identify Activators of 5'UTR Stem-Loop Driven Prion Protein mRNA Translation in H4-C Neuroglioblastoma Cells. [Related pubchem assays: 1829 (Project Summary), 1814 (Primary HTS)]; type: functional
[3] = Luminescence Cell-Based Dose Confirmation HTS to Identify Activators of 5'UTR Stem-Loop Driven Alpha-Synuclein mRNA Translation in H4 Neuroglioblastoma Cells. [Related pubchem assays: 1829 (Project Summary), 1814 (Primary HTS)]; type: functional
[4] = Luminescence Cell-Based Dose Response HTS to Identify Activators of Luciferase Translation or Activity in H4 […] Cells. [Related pubchem assays: 1829 (Project Summary), 1814 (Primary HTS)]; type: functional
[5] = Luminescence Cell-Based Dose Response to Identify Activators of Luciferase Translation or Activity in H4-C Neuroglioblastoma Cells. [Related pubchem assays: 1829 (Project Summary), 1814 (Primary HTS)]; type: functional
[6] = Luminescence Cell-Based Dose Confirmation to Identify Activators of 5'UTR Stem-Loop Driven Alpha-Synuclein mRNA Translation in H4 Neuroglioblastoma Cells. [Related pubchem assays: 1829 (Project Summary), 1814 (Primary HTS)]; type: functional
Genome polyprotein = Genome polyprotein (Hepatitis C virus, UniProt Q2Q167); test: disruption of hepatitis C core self-association – biochemical, TR-FRET, dose response (AID 2159); design: species or system Hepacivirus hominis;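 further: blocks dimerization of HCV core protein measured by TR-FRET between tagged core106 pairs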
Sequence of Genome polyprotein (Q2Q167 whole entry): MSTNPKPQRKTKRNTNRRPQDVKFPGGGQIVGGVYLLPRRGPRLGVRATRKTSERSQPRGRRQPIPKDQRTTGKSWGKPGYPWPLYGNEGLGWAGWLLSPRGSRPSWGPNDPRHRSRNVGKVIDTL

Bcl-2-like protein 10 = Bcl-2-like protein 10 (Homo sapiens, UniProt Q9HD36); test: Bcl-B/TR3 peptide binding disruption – biochemical, fluorescence polarization, FITC-TR3 peptide, selectivity assay for Bfl-1 inhibitor project, primary screen (AID 748);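 further: fluorescence polarization from a fluorescein-labelled TR3 peptide binding purified Bcl-B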
[7] = A Cell Based Secondary Assay To Explore Cytotoxicity of Compounds that Sensitize Mycobacterium Tuberculosis to Beta-Lactam Antibiotics.; type: functional
[8] = target: T2, Induced myeloid leukemia cell differentiation protein Mcl-1 (Homo sapiens, UniProt Q07820); test: blockers of MCL1 binding to BIM peptide – biochemical, fluorescence polarization, BIM-BH3 peptide, 1536-well, dose response (AID 2217)
T2 sequence (Q07820 whole entry): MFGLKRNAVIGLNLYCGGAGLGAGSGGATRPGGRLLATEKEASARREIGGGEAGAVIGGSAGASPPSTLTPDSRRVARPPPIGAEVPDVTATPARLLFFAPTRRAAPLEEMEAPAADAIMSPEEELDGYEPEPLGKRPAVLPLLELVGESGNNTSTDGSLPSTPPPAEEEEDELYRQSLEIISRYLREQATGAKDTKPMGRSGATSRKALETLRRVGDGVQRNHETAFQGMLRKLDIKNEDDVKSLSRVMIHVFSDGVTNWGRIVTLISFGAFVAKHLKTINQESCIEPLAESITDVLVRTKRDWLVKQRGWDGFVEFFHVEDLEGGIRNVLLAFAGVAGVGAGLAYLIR

Estrogen receptor beta [9] = target: T3, Estrogen receptor beta (Homo sapiens, UniProt Q92731);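 further: recombinant ER-beta bound to coactivator SRC1 peptide in presence of estradiol agonist; inhibitors block coactivator peptide binding and lower the FRET signal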
T3 sequence (Q92731 whole entry): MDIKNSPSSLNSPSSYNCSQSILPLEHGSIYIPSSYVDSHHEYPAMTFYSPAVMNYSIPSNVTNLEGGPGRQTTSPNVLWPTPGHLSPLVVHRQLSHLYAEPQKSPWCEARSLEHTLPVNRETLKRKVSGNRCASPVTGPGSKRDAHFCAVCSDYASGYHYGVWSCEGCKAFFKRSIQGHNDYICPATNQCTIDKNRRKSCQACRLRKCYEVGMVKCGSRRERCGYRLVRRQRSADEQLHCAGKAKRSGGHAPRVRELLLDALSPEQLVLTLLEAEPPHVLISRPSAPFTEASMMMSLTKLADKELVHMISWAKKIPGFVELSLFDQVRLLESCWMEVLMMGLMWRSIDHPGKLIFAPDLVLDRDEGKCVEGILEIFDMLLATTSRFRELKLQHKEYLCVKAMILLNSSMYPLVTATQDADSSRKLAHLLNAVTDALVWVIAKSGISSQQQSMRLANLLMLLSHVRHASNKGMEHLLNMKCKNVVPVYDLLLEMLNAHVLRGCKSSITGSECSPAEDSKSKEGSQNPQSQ

Estrogen receptor beta [10] = target: T3, Estrogen receptor beta; test: blockers of SRC-3 recruitment to ERβ – biochemical, ELISA, streptavidin-HRP readout, orthogonal assay, confirmation (AID 1060)
Bcl-2-like protein 1 = Bcl-2-like protein 1 (Homo sapiens, UniProt Q07817); test: blockers of BCLXL peptide binding – biochemical, fluorescence polarization, 1536-well, selectivity assay for MCL1 inhibitor project, dose response (AID 2218)
Sequence of Bcl-2-like protein 1 (Q07817 whole entry): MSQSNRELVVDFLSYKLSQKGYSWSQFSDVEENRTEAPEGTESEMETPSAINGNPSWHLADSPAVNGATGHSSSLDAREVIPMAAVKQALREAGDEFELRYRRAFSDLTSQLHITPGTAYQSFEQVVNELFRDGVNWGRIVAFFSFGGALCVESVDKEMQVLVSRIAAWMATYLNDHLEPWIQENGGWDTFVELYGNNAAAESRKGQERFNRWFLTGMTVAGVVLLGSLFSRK

[11] = target: T2, Induced myeloid leukemia cell differentiation protein Mcl-1; type: functional
SUMO E1/E2 = SUMO E1/E2 (Homo sapiens, UniProt P63279+Q9UBE0+Q9UBT2); test: SAR analysis of SUMOylation using HTRF in an in-Vitro dose response assay. [Related pubchem assays (depositor defined):AID2006, AID2011, AID2018, AID2069, AID2658]; type: functional
[12] = target: T4, Voltage-gated N-type calcium channel alpha-1B subunit/Amyloid beta A4 precursor protein-binding family A member 1 (Homo sapiens, UniProt Q00975+Q02410); test: disruptors of Mint-PDZ/N-type channel peptide interaction – biochemical, HTRF, set 2, SAR follow-up (AID 434980); type: functional
T4 sequence (Q00975 whole entry): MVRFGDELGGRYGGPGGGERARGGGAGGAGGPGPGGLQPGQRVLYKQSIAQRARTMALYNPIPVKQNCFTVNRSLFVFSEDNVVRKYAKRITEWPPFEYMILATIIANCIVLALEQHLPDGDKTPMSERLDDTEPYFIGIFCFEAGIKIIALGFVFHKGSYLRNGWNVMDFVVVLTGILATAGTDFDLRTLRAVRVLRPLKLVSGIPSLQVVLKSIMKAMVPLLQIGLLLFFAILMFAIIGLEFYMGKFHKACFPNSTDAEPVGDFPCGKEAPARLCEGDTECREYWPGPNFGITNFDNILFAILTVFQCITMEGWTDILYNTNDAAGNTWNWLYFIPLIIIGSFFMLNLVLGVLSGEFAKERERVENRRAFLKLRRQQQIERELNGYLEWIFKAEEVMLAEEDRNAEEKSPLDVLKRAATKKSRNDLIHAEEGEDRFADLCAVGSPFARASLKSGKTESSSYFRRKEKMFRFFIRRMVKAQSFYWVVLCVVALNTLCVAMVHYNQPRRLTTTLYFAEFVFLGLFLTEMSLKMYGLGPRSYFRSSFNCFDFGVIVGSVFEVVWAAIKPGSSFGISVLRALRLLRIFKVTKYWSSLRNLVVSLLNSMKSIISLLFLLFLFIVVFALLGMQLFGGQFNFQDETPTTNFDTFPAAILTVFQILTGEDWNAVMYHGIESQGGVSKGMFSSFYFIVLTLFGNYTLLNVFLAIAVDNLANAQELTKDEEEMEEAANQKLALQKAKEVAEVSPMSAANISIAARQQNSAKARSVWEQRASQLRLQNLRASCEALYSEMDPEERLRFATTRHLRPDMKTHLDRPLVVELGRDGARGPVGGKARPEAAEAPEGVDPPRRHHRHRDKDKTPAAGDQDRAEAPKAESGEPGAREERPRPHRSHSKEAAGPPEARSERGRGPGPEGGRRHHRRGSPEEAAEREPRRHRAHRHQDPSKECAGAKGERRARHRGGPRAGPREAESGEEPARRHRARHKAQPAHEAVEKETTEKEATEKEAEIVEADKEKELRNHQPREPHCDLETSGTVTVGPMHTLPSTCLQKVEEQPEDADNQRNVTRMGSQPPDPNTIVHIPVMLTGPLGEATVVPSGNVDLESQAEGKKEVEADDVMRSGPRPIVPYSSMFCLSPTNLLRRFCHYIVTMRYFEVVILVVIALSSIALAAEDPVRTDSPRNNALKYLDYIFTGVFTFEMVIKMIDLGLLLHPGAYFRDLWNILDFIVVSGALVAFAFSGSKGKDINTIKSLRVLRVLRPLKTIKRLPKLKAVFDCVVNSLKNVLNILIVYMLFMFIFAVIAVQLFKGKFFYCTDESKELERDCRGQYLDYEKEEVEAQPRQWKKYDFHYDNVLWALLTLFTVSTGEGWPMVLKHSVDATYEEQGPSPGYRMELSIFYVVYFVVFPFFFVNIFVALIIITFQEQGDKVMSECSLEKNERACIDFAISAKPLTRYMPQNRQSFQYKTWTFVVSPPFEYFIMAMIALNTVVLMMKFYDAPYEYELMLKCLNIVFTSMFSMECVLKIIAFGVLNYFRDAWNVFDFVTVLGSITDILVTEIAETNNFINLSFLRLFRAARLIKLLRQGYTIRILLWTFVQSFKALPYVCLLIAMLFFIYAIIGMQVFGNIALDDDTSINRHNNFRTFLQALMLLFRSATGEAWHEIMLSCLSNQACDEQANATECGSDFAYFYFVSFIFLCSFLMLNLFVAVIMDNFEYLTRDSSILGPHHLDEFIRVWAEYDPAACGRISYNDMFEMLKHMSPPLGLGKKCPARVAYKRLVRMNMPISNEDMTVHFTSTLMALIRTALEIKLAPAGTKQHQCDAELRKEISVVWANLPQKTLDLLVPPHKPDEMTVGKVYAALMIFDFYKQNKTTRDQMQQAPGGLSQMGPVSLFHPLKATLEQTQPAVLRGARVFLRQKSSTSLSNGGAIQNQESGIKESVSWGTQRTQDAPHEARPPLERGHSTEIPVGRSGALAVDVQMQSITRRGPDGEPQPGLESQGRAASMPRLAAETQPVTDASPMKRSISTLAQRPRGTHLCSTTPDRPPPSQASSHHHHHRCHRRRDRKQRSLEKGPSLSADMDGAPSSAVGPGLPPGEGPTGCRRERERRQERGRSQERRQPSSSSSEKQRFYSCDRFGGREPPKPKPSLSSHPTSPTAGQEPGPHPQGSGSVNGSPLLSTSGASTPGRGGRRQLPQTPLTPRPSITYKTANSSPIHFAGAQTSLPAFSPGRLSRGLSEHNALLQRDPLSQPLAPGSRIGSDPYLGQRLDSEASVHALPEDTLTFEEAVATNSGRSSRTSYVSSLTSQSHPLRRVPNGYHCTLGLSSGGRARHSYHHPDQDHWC
T4 sequence (Q02410 whole entry): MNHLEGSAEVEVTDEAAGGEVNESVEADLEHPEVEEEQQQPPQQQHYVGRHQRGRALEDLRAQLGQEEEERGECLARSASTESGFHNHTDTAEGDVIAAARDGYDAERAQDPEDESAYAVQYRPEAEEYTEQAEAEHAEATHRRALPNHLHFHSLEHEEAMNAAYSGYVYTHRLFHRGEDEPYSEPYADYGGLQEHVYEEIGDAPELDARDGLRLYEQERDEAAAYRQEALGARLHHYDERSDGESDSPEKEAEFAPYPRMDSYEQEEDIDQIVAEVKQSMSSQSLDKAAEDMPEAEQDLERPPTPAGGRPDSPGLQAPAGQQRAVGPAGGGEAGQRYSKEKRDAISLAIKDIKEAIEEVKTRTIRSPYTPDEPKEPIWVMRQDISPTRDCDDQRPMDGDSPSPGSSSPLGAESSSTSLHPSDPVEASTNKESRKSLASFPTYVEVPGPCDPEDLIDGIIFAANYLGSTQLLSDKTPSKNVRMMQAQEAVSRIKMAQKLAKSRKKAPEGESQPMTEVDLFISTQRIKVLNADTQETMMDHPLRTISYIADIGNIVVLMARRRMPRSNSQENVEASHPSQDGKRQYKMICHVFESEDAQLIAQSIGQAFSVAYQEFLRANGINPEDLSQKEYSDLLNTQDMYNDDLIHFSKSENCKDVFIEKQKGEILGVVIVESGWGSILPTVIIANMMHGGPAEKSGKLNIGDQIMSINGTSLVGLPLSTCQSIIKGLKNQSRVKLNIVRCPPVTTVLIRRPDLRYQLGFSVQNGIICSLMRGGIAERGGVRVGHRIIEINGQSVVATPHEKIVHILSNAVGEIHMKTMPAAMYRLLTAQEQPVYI

[13] = target: T4, Voltage-gated N-type calcium channel alpha-1B subunit/Amyloid beta A4 precursor protein-binding family A member 1; test: disruptors of Mint-PDZ/N-type channel peptide interaction – biochemical, HTRF, SAR follow-up (AID 2489); type: functional
[14] = luciferase reporter signal suppression in cells – H4 neuroglioma cells, luminescence, dose response (AID 1990); type: functional, cell-based
[15] = Luminescence Cell-Based Dose Response HTS to Identify Inhibitors of 5'UTR Stem-Loop Driven Prion Protein mRNA Translation in H4 Neuroglioblastoma Cells. [Related pubchem assays: 1827 (Project Summary), 1813 (Primary HTS)]; type: functional
[16] = alpha-synuclein stem-loop luciferase translation blockers – H4 neuroglioma cells, luminescence, confirmation (AID 1988); type: functional, cell-based
[17] = A High Throughput Confirmatory Assay used to Identify Novel Compounds that Inhibit Mycobacterium Tuberculosis in the absence of Glycerol.; type: functional
[18] = microbe, parasite or virus in culture; type: functional; settings: Mycobacterium tuberculosis
[19] = target: T5, Heat shock factor protein 1 (Mus musculus, UniProt P38532); test: decrease of HSF1-responsive luciferase luminescence – cell-based, NIH3T3, dose retest, confirmation (AID 2382); type: functional;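 further: NIH3T3 fibroblasts with HSF1-driven luciferase reporter stressed by proteasome inhibitor MG132; luminescence from HSF1-driven luciferase expression after 8 hours of MG132 stress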
T5 sequence (P38532 whole entry): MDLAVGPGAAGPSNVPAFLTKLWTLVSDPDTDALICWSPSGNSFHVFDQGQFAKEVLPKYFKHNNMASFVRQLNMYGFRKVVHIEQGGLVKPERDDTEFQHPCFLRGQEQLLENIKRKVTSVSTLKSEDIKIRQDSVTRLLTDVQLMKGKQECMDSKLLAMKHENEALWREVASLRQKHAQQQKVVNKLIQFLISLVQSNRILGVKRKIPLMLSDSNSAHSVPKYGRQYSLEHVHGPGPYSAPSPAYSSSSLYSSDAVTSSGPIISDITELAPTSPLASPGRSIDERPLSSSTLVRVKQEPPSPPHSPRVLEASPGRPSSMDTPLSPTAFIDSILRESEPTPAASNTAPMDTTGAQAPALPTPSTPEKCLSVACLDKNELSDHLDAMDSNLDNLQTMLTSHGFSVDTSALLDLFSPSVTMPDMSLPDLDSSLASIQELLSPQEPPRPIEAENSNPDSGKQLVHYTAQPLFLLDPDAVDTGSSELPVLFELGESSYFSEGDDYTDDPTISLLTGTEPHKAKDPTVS

Prothrombin = Prothrombin (Homo sapiens, UniProt P00734); test: Thrombin 1536 HTS Dose Response Confirmation. [Related pubchem assays: 1046 (Thrombin 1536 HTS; hits were confirmed in this assay)]; type: functional
[20] = target: Heat shock protein HSP 90-alpha (Homo sapiens, UniProt P07900); test: Luminescence-based dose response biochemical high throughput screening assay for inhibitors of the Heat Shock Protein 90 (HSP90). [Related pubchem assays: 1831 (Summary AID.), 1846 (Confirmation screen.), 1789 (Primary screen.)]
[21] = target: T6, Microphthalmia-associated transcription factor (Homo sapiens, UniProt O75030); test: reducers of TRPM1 reporter luminescence, concentration series – cell-based, SK-MEL-5, cherry-picked, set 3, MITF inhibitor project, dose response (AID 493073); type: functional;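 further: SK-MEL-5 melanoma cells with luciferase driven by the MITF target TRPM1 promoter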
T6 sequence (O75030 whole entry): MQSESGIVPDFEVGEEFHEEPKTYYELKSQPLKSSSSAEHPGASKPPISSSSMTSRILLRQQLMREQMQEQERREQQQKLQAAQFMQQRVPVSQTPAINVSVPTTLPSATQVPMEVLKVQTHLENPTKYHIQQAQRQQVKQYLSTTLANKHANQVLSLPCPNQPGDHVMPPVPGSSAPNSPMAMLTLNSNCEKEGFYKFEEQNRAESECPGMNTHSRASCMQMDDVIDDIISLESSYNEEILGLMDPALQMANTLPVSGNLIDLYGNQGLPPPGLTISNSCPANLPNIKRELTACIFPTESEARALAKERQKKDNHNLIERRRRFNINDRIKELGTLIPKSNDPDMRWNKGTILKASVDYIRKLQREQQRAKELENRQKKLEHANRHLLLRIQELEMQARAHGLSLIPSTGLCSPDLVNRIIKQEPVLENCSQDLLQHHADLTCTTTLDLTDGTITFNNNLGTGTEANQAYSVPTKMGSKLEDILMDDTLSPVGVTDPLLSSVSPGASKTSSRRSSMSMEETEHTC

Mucolipin-3 = Mucolipin-3 (Homo sapiens, UniProt Q8TDD5); test: Dose response cell-based high-throughput screening assay for agonists of the transient receptor potential channel ML3 (TRPML3). [Related pubchem assays: 1526, 1424, 1448 ]; type: functional
Sequence of Mucolipin-3 (Q8TDD5 whole entry): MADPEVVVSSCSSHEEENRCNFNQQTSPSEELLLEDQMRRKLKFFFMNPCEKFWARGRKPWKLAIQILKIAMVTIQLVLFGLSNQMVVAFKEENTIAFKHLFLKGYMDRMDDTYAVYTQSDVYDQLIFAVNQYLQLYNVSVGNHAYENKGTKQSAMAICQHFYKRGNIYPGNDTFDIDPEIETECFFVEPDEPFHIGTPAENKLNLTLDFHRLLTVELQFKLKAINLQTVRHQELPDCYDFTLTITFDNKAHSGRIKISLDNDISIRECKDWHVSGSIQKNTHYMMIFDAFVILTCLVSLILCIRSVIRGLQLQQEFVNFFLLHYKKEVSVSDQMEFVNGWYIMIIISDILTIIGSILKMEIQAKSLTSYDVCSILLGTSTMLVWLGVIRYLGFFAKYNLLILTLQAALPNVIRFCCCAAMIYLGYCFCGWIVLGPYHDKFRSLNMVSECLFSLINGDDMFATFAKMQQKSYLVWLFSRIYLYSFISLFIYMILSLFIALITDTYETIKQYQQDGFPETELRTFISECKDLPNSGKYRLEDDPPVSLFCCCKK

Ion channel NompC = Ion channel NompC (Danio rerio, UniProt Q7T1G6); test: Fluorescence counterscreen assay for TRPML3 agonists: dose response cell-based high-throughput screening assay to identify agonists of the transient receptor potential channel N1 (TRPN1). [Related pubchem assays: 1526, 1424, 1448 ]; type: functional

SMILES: O=C(Nc1cc(C(F)(F)F)ccc1Cl)C1CCN(c2nnc(-n3cccc3)s2)CC1
- IC50 [1]: > 100 µM (not active)

SMILES: O=C(NC1CCCCCC1)c1ccc(CN2CCOCC2)cc1
- EC50 [2]: 889 nM (active)
- EC50 [3]: < 100 nM (active)
- EC50 [4]: 17.5 µM (active)
- EC50 [5]: 670 nM (active)
- EC50 [6]: 406 nM (active)

SMILES: O=C(OCC(=O)N1CCN(C(=O)c2ccco2)CC1)c1cc(-c2ccco2)nc2ccccc12
- IC50 (Genome polyprotein): > 49.8 µM (not active)
- IC50 (Bcl-2-like protein 10): 12 µM (active)
- CC50 [7]: > 40 µM (active)
- IC50 [8]: 6.8 µM (active)
- IC50 (Estrogen receptor beta [9]): < 1.56 µM (active)
- IC50 (Estrogen receptor beta [10]): > 50 µM (not active)
- IC50 (Bcl-2-like protein 1): > 109 µM (not active)
- IC50 [11]: 3.96 µM (active)
- IC50 (SUMO E1/E2): 1.93 µM (active)
- IC50 [12]: 2.86 µM (active)
- IC50 [13]: 5.92 µM (active)

SMILES: CC(C)CNc1nnnc2c1sc1nc(N3CCOCC3)c3c(c12)CC(C)(C)SC3
- EC50 [14]: 19.2 µM (active)
- EC50 [15]: 35.1 µM (active)
- EC50 [16]: 14.3 µM (active)
- IC50 [17]: > 100 µM (active)
- CC50 [18]: > 40 µM (active)

SMILES: Cc1ccc2nc(NC(=O)CSCC(=O)OCC(=O)c3ccccc3)sc2c1
- EC50 [19]: 1.05 µM (active)
- IC50 (Prothrombin): 89.7 nM (active)
- IC50 [20]: 5.17 µM (active)
- AC50 [21]: 5.78 µM (active)

SMILES: COc1ccc(C(C(=O)NC2CCCC2)N(Cc2ccccc2)C(=O)c2nsc(Cl)c2Cl)cc1 (stereo not drawn)
- EC50 (Mucolipin-3): > 29.9 µM (not active)
- EC50 (Ion channel NompC): > 29.9 µM (not active)
